Assay results as given in patent US20200187502A1, “MICROBIOCIDAL OXADIAZOLE DERIVATIVES” (SYNGENTA PARTICIPATIONS AG, priority 2017, published 2020).

Experiments:
Phakopsora pachyrhizi = assay: Fungicidal activity, soybean leaf disc preventative (Asian soybean rust); assay type: in vivo; conditions: foliar, 200 ppm in the applied formulation, soybean leaf disks, compared to untreated control, 12 to 14 days after application, read-out: disease control
Description: Leaf disks or leaf segments of various plant species are cut from plants grown in a greenhouse. The cut leaf disks or segments are placed in multiwell plates (24-well format) onto water agar. The leaf disks are sprayed with a test solution before (preventative) or after (curative) inoculation. Compounds to be tested are prepared as DMSO solutions (max. 10 mg/ml) which are diluted to the appropriate concentration with 0.025% Tween20 just before spraying. The inoculated leaf disks or segments are incubated under defined conditions (temperature, relative humidity, light, etc.) according to the respective test system. A single evaluation of disease level is carried out 3 to 14 days after inoculation, depending on the pathosystem. Percent disease control relative to the untreated check leaf disks or segments is then calculated.
Soybean leaf disks are placed on water agar in multiwell plates (24-well format) and sprayed with the formulated test compound diluted in water. One day after application leaf discs are inoculated by spraying a spore suspension on the lower leaf surface. After an incubation period in a climate cabinet of 24-36 hours in darkness at 20° C. and 75% rh leaf disc are kept at 20° C. with 12 h light/day and 75% rh. The activity of a compound is assessed as percent disease control compared to untreated when an appropriate level of disease damage appears in untreated check leaf disks (12 to 14 days after application).
The following compounds at 200 ppm in the applied formulation give at least 80% disease control in this test when compared to untreated control leaf disks under the same conditions, which show extensive disease development.

[1] = tested on: Puccinia recondita f. Sp. Tritici; assay: Fungicidal activity, wheat leaf disc preventative (brown rust); assay type: in vivo; conditions: foliar, 200 ppm in the applied formulation, wheat leaf segments cv. Kanzler, compared to untreated control, 7 to 9 days after application, read-out: disease control
In short: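 Wheat cv. Kanzler leaf segments on agar were sprayed with formulated compound in water, then inoculated with spores 1 day later. Incubated at 19° C, 75% rh, 12 h light/12 h dark; percent disease control versus untreated scored 7 to 9 days after application.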

[2] = tested on: Glomerella lacenarium (Colletotrichum lacenarium); assay: Fungicidal activity, liquid culture, cucumber preventative (anthracnose); assay type: cell-based; conditions: 20 ppm in the applied formulation, liquid culture in PDB, inhibition of growth measured photometrically 3 to 4 days after application, compared to untreated control, read-out: disease control
In short: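 Conidia from cryogenic storage were mixed into potato dextrose broth and added to DMSO solutions of test compound in microtiter plates. Plates were incubated at 24° C. and growth inhibition read photometrically 3 to 4 days after application, as percent antifungal activity versus untreated check.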

[3] = tested on: Puccinia recondita f. Sp. Tritici; assay: Fungicidal activity, wheat leaf disc curative (brown rust); assay type: in vivo; conditions: foliar, 200 ppm in the applied formulation, wheat leaf segments cv. Kanzler, curative (applied 1 day after inoculation), compared to untreated control, 6 to 8 days after application, read-out: disease control
In short: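 Wheat cv. Kanzler leaf segments on agar were inoculated with fungal spore suspension, held dark at 19° C and 75% RH, then sprayed 1 day later with formulated compound diluted in water. Incubation continued at 19° C, 75% RH, 12 h light/12 h dark; percent disease control versus untreated was scored 6 to 8 days after application.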

Structure (SMILES)	pest or weed control at 200 ppm (Phakopsora pachyrhizi) [%]	pest or weed control at 200 ppm [1] [%]	inhibition of growth at 20 ppm [2] [%]	pest or weed control at 200 ppm [3] [%]
CC(=O)NCC(=O)NCc1ccc(-c2noc(C(F)(F)F)n2)s1 [Compound 2.2, 2-acetamido-N-[[5-[5-(trifluoromethyl)-1,2,4-oxadiazol-3-yl]-2-thienyl]methyl]acetamide]	≥ 80			
CCN(Cc1ccc(-c2noc(C(F)(F)F)n2)s1)S(=O)(=O)N(C)C [Compound 6.18, N-(dimethylsulfamoyl)-N-[[5-[5-(trifiuoromethyl)-1,2,4-oxadiazol-3-yl]-2-thienyl]methyl]ethanamine]	≥ 80	≥ 80	≥ 80	
CCCS(=O)(=O)N(CC)Cc1ccc(-c2noc(C(F)(F)F)n2)s1 [Compound 6.20, N-ethyl-N-[[5-[5-(trifluoromethyl)-1,2,4-oxadiazol-3-yl]-2-thienyl]methyl]propane-1-sulfonamide]	≥ 80	≥ 80	≥ 80	
CCN(Cc1ccc(-c2noc(C(F)(F)F)n2)s1)C(C)=O [Compound 4.31, N-ethyl-N-[[5-[5-(trifluoromethyl)-1,2,4-oxadiazol-3-yl]-2-thienyl]methyl]acetamide]	≥ 80	≥ 80	≥ 80	
CCN(Cc1ccc(-c2noc(C(F)(F)F)n2)s1)C(=O)COC [Compound 4.22, N-ethyl-2-methoxy-N-[[5-[5-(trifluoromethyl)-1,2,4-oxadiazol-3-yl]-2-thienyl]methyl]acetamide]	≥ 80	≥ 80	≥ 80	
CN(Cc1ccc(-c2noc(C(F)(F)F)n2)s1)C(=O)N1CCCO1 [Compound 5.56, N-methyl-N-[[5-[5-(trifluoromethyl)-1,2,4-oxadiazol-3-yl]-2-thienyl]methyl]isoxazolidine-2-carboxamide]	≥ 80	≥ 80	≥ 80	
CCN(Cc1ccc(-c2noc(C(F)(F)F)n2)s1)S(=O)(=O)CC [Compound 6.14, N-ethyl-N-[[5-[5-(trifluoromethyl)-1,2,4-oxadiazol-3-yl]-2-thienyl]methyl]ethanesulfonamide]	≥ 80		≥ 80	
CCN(Cc1ccc(-c2noc(C(F)(F)F)n2)s1)C(=O)C(=O)c1ccco1 [Compound 6.46, N-ethyl-2-(2-furyl)-2-oxo-N-[[5-[5-(trifluoromethyl)-1,2,4-oxadiazol-3-yl]-2-thienyl]methyl]acetamide]		≥ 80	≥ 80	≥ 80
CC(C)CC(=O)C(=O)N(C)Cc1ccc(-c2noc(C(F)(F)F)n2)s1 [Compound 6.51, N,4-dimethyl-2-oxo-N-[[5-[5-(trifluoromethyl)-1,2,4-oxadiazol-3-yl]-2-thienyl]methyl]pentanamide]		≥ 80	≥ 80	≥ 80
CCCC(=O)N(C)Cc1ccc(-c2noc(C(F)(F)F)n2)s1 [Compound 4.34, N-methyl-N-[[5-[5-(trifluoromethyl)-1,2,4-oxadiazol-3-yl]-2-thienyl]methyl]butanamide]		≥ 80	≥ 80	≥ 80
CCC(=O)C(=O)N(C)Cc1ccc(-c2noc(C(F)(F)F)n2)s1 [Compound 6.49, N-methyl-2-oxo-N-[[5-[5-(trifluoromethyl)-1,2,4-oxadiazol-3-yl]-2-thienyl]methyl]butanamide]		≥ 80	≥ 80	≥ 80
CCN(Cc1ccc(-c2noc(C(F)(F)F)n2)s1)C(=O)CC#N [Compound 4.29, 2-cyano-N-ethyl-N-[[5-[5-(trifluoromethyl)-1,2,4-oxadiazol-3-yl]-2-thienyl]methyl]acetamide]		≥ 80	≥ 80	≥ 80
CN(Cc1ccc(-c2noc(C(F)(F)F)n2)s1)S(C)(=O)=O [Compound 6.27, N-methyl-N-[[5-[5-(trifluoromethyl)-1,2,4-oxadiazol-3-yl]-2-thienyl]methyl]methanesulfonamide]		≥ 80	≥ 80	≥ 80
CC(=O)NCC(=O)N(Cc1ccc(-c2noc(C(F)(F)F)n2)s1)C(C)C [Compound 4.43, 2-acetamido-N-isopropyl-N-[[5-[5-(trifluoromethyl)-1,2,4-oxadiazol-3-yl]-2-thienyl]methyl]acetamide]		≥ 80	≥ 80	≥ 80
COCCCC(=O)N(Cc1ccc(-c2noc(C(F)(F)F)n2)s1)OCC(F)F [Compound 4.67, N-(2,2-difluoroethoxy)-4-methoxy-N-[[5-[5-(trifluoromethyl)-1,2,4-oxadiazol-3-yl]-2-thienyl]methyl]butanamide]		≥ 80	≥ 80	≥ 80
COCCN(CCOC)C(=O)N(Cc1ccc(-c2noc(C(F)(F)F)n2)s1)C1CC1 [Compound 4.91, 1-cyclopropyl-3,3-bis(2-methoxyethyl)-1-[[5-[5-(trifluoromethyl)-1,2,4-oxadiazol-3-yl]-2-thienyl]methyl]urea]		≥ 80	≥ 80	≥ 80
CCN(Cc1ccc(-c2noc(C(F)(F)F)n2)s1)C(=O)N1CCCO1 [Compound 5.52, N-ethyl-N-[[5-[5-(trifluoromethyl)-1,2,4-oxadiazol-3-yl]-2-thienyl]methyl]isoxazolidine-2-carboxamide]		≥ 80	≥ 80	≥ 80
O=C(Cc1ccccc1)C(=O)N(Cc1ccc(-c2noc(C(F)(F)F)n2)s1)C1CC1 [Compound 6.57, N-cyclopropyl-2-oxo-3-phenyl-N-[[5-[5-(trifluoromethyl)-1,2,4-oxadiazol-3-yl]-2-thienyl]methyl]propanamide]		≥ 80	≥ 80	≥ 80
CON(Cc1ccc(-c2noc(C(F)(F)F)n2)s1)C(=O)N(CC(F)F)C1CC1 [Compound 1.59, 1-cyclopropyl-1-(2,2-difluoroethyl)-3-methoxy-3-[[5-[5-(trifluoromethyl)-1,2,4-oxadiazol-3-yl]-2-thienyl]methyl]urea]		≥ 80	≥ 80	≥ 80
CC(C)N(Cc1ccc(-c2noc(C(F)(F)F)n2)s1)C(=O)C1CCOC1 (stereo not drawn) [Compound 5.28, N-isopropyl-N-[[5-[5-(trifluoromethyl)-1,2,4-oxadiazol-3-yl]-2-thienyl]methyl]tetrahydrofuran-3-carboxamide]		≥ 80	≥ 80	≥ 80
CCN(Cc1ccc(-c2noc(C(F)(F)F)n2)s1)C(=O)C1CCC1 [Compound 5.11, N-ethyl-N-[[5-[5-(trifluoromethyl)-1,2,4-oxadiazol-3-yl]-2-thienyl]methyl]cyclobutanecarboxamide]		≥ 80	≥ 80	≥ 80
